Results reported in patent US20230263822A1, “MODULATION OF FACTOR 11 EXPRESSION” (Ionis Pharmaceuticals, Inc., priority 2008, published 2023).
Strand notation (5' to 3'): a small letter for the sugar, then the base; units joined by * are phosphorothioate-linked, units joined directly phosphodiester-linked; [ ] holds rarer units or linkages, { } end groups; capitals alone tell only the bases. e = 2'-O-(2-methoxyethyl) (MOE); [5mC] = 5-methylcytosine; d = 2'-deoxy (DNA)

tested on: human Factor 11 mRNA; experiment: Antisense inhibition of human Factor 11 in HepG2 cells by microwalk gapmers, lipofectin, 75 nM (Example 3); format: cell-based; details: HepG2 cells, lipofectin, gapmers targeted to nucleobases 1062 to 1091 of SEQ ID NO: 1
Summary of the method: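 HepG2 cells (10,000/well) were transfected via lipofectin with 75 nM 20-mer MOE gapmers (phosphorothioate, 5-methyl-C) for about 24 h. Factor 11 mRNA was measured by qRT-PCR, normalized to RIBOGREEN total RNA, and given as percent inhibition versus untreated cells.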

In order of rising “% inhibition” value:
1. 416919 (antisense eT*eT*eT*d[5mC]*dT*dT*dT*dG*dA*dG*dA*dT*dT*d[5mC]*dT*dT*dT*eG*eG*eG) [compound 416919]  27%
2. 416918 (antisense eT*eT*e[5mC]*dT*dT*dT*dG*dA*dG*dA*dT*dT*d[5mC]*dT*dT*dT*dG*eG*eG*e[5mC]) [compound 416918]  63%
3. 416915 (antisense eT*eT*eT*dG*dA*dG*dA*dT*dT*d[5mC]*dT*dT*dT*dG*dG*dG*d[5mC]*e[5mC]*eA*eT) [compound 416915]  79%
4. 416914 (antisense eT*eT*eG*dA*dG*dA*dT*dT*d[5mC]*dT*dT*dT*dG*dG*dG*d[5mC]*d[5mC]*eA*eT*eT) [compound 416914]  87%
5. 416916 (antisense e[5mC]*eT*eT*dT*dG*dA*dG*dA*dT*dT*d[5mC]*dT*dT*dT*dG*dG*dG*e[5mC]*e[5mC]*eA) [compound 416916]  91%
6. 416912 (antisense eG*eA*eG*dA*dT*dT*d[5mC]*dT*dT*dT*dG*dG*dG*d[5mC]*d[5mC]*dA*dT*eT*e[5mC]*e[5mC]) [compound 416912]  92%
7. 416917 (antisense eT*e[5mC]*eT*dT*dT*dG*dA*dG*dA*dT*dT*d[5mC]*dT*dT*dT*dG*dG*eG*e[5mC]*e[5mC]) [compound 416917]  92%
8. 416913 (antisense eT*eG*eA*dG*dA*dT*dT*d[5mC]*dT*dT*dT*dG*dG*dG*d[5mC]*d[5mC]*dA*eT*eT*e[5mC]) [compound 416913]  93%

same assay, conditions: HepG2 cells, lipofectin, gapmers targeted to nucleobases 1275 to 1318 of SEQ ID NO: 1

In order of rising “% inhibition” value:
1. 416929 (antisense e[5mC]*eA*eT*dT*dG*dG*dT*dG*d[5mC]*dA*d[5mC]*dA*dG*dT*dT*dT*d[5mC]*eT*eG*eG) [compound 416929]  83%
2. 416927 (antisense eT*eT*eG*dG*dT*dG*d[5mC]*dA*d[5mC]*dA*dG*dT*dT*dT*d[5mC]*dT*dG*eG*e[5mC]*eA) [compound 416927]  87%
3. 416930 (antisense eG*e[5mC]*eA*dT*dT*dG*dG*dT*dG*d[5mC]*dA*d[5mC]*dA*dG*dT*dT*dT*e[5mC]*eT*eG) [compound 416930]  87%
4. 416920 (antisense eA*e[5mC]*eA*dG*dT*dT*dT*d[5mC]*dT*dG*dG*d[5mC]*dA*dG*dG*d[5mC]*d[5mC]*eT*e[5mC]*eG) [compound 416920]  88%
5. 416921 (antisense e[5mC]*eA*e[5mC]*dA*dG*dT*dT*dT*d[5mC]*dT*dG*dG*d[5mC]*dA*dG*dG*d[5mC]*e[5mC]*eT*e[5mC]) [compound 416921]  88%
6. 416936 (antisense e[5mC]*eG*eG*dA*d[5mC]*dG*dG*d[5mC]*dA*dT*dT*dG*dG*dT*dG*d[5mC]*dA*e[5mC]*eA*eG) [compound 416936]  89%
7. 416934 (antisense eG*eA*e[5mC]*dG*dG*d[5mC]*dA*dT*dT*dG*dG*dT*dG*d[5mC]*dA*d[5mC]*dA*eG*eT*eT) [compound 416934]  90%
8. 416928 (antisense eA*eT*eT*dG*dG*dT*dG*d[5mC]*dA*d[5mC]*dA*dG*dT*dT*dT*d[5mC]*dT*eG*eG*e[5mC]) [compound 416928]  91%
9. 416932 (antisense e[5mC]*eG*eG*d[5mC]*dA*dT*dT*dG*dG*dT*dG*d[5mC]*dA*d[5mC]*dA*dG*dT*eT*eT*e[5mC]) [compound 416932]  92%
10. 416933 (antisense eA*e[5mC]*eG*dG*d[5mC]*dA*dT*dT*dG*dG*dT*dG*d[5mC]*dA*d[5mC]*dA*dG*eT*eT*eT) [compound 416933]  92%
11. 416935 (antisense eG*eG*eA*d[5mC]*dG*dG*d[5mC]*dA*dT*dT*dG*dG*dT*dG*d[5mC]*dA*d[5mC]*eA*eG*eT) [compound 416935]  92%
12. 416937 (antisense eG*e[5mC]*eG*dG*dA*d[5mC]*dG*dG*d[5mC]*dA*dT*dT*dG*dG*dT*dG*d[5mC]*eA*e[5mC]*eA) [compound 416937]  93%
